Laboratory results as given in patent publication US4645774A, “Aminoethoxybenzylalcohol derivatives, process for their preparation and pharmaceutical compositions containing them” (Richter Gedeon Vegyeszeti Gyar Rt, priority 1982, dated 1987).

What was measured:
[1] = system: Cytochrome b-5; test: Cytochrome b-5 quantity from NADH differential spectrum; format: in vivo, rat (female H. Wistar); settings: 40 mg./kg. single oral dose, 24 hours; control 8.6 ± 0.43; ± S.E.
Description: (§1) The enzyme inducing activity of the compounds of the formula (I) was further tested by determining the activity of the polysubstrate monooxygenase enzyme system of the liver after treatment with a placebo and the compounds according to the invention, respectively. Female H. Wistar rats each weighing 50 to 60 g. were administered a single 40 mg./kg. dose of the test compounds, orally. 24 hours after treatment the animals were decapitated and the livers were eliminated. […] The cytochrome P-450 concentration was determined from the carbon monoxide differential spectrum of a reduced microsomal suspension (Omura T. et al.: J. Biol. Chem. 239, 2370 (1964)), the quantity of cytochrome b-5 was determined from a NADH differential spectrum (Raw J. et al.: J. Biol. Chem. 234, 1867 (1959)). The activity of NADPH: ferricytochrome C (P-450) reductase (E.C. 1.6.2.4) was measured according to Williams C. […] The activity of aniline hydroxylase was determined according to Chhabra R. S. et al.: Toxicol. […] Pharmacol., 22, 50 (1972) by measuring the velocity of p-aminophenol formation, while the […] activity was determined on the basis of the quantity of formaldehyde formed, following the method of Gourlay G. K. et al.: Biochem. Pharmacol., 27, 965 (1978). […]

[2] = system: Cytochrome P-450; test: Cytochrome P-450 concentration from carbon monoxide differential spectrum; format: in vivo, rat (female H. Wistar); settings: 40 mg./kg. single oral dose, 24 hours; control 12.8 ± 0.63; ± S.E.
Description: as §1

[3] = system: aminopyridine demethylase; test: aminopyridine demethylase activity (formaldehyde formed); format: in vivo, rat (female H. Wistar); settings: 40 mg./kg. single oral dose, 24 hours; control 254.8 ± 7.47; ± S.E.
Description: as §1

[4] = acute toxicity; design: species or system rat (H-Wistar, both sexes); settings: rat, in vivo, po; for mortality at 336 h: 500 mg./kg. p.o. single dose, 14 days observation, n=10, read-out: Perished animals
Description: The acute toxicity of the compounds of the formula (I) was determined on H-Wistar rats of both sexes, each weighing 160 to 180 g. The compounds were administered in a single 500 mg./kg. dose, orally.

[5] = system: NADPH: ferricytochrome C (P-450) reductase (E.C. 1.6.2.4); test: activity of NADPH: ferricytochrome C (P-450) reductase; format: in vivo, rat (female H. Wistar); settings: 40 mg./kg. single oral dose, 24 hours; control 4686 ± 286.2; ± S.E.
Description: as §1

[6] = system: Microsomal protein; test: Microsomal protein of the liver after treatment; format: in vivo, rat (female H. Wistar); settings: 40 mg./kg. single oral dose, 24 hours; control 29.3 ± 1.01; ± S.E.
Description: as §1

[7] = system: liver; test: Relative weight of liver after treatment; format: in vivo, rat (female H. Wistar); settings: 40 mg./kg. single oral dose, 24 hours; control 4.3 ± 0.17; ± S.E.
Description: as §1

[8] = system: hexobarbital oxidase; test: in vivo measurement of hexobarbital oxidase activity (hexobarbital narcosis period); design: species or system rat (female Hann.-Wistar); settings: 40 mg./kg. oral single dose, n=10, mean ± S.E.; for Narcosis period in % of the control, 1 hour: hexobarbital sodium 60 mg./kg. i.v. 1 hour after; for Narcosis period in % of the control, 24 hours: hexobarbital sodium 60 mg./kg. i.v. 24 hours after
Description: The enzyme-inducing potency of the new compounds according to the invention was determined by several methods. One of these methods was the in vivo measurement of hexobarbital oxidase activity.
To determine the change of hexobarbital oxidase activity female Hann.-Wistar rats, each weighing 50 to 60 g. were treated orally with a single 40 mg./kg. dose of the active agent. One and 24 hours after the administration of the active agent, respectively, the animals were narcotized with a 60 mg./kg. i.v. dose of hexobarbital sodium, and the time elapsed until complete wakening from ceasing of the righting reflex was measured (Noordhoex J.: Eur. J. Pharmacol, 3, 242, 1968). As a reference compound phenobarbital was used. The data were recorded, and the mean values, the standard errors, as well as the percentage increase with respect to the control were calculated for each group. Abbreviations:
S.E.=standard error of the mean value,
The control group was treated with a placebo. [formula] A=α-ethyl-α-(3-trifluoromethylphenyl)-4-[2-(piperidin-l-yl)-eth oxy]-benzylalcohol;

[9] = system: aniline hydroxylase; test: activity of aniline hydroxylase (p-aminophenol formation); format: in vivo, rat (female H. Wistar); settings: 40 mg./kg. single oral dose, 24 hours; control 20.3 ± 0.88; ± S.E.
Description: as §1

[10] = system: mice and rats; format: in vivo; settings: orally, even in a dose of 40 mg./kg.
Description: The central nervous activities of the compounds according to the invention were examined on mice and rats with the following methods: electroshock (Swinyard, E. A., Brown, W. C., Goodman, L. S.: J. Pharmacol. Exp. Ther. 106, 319 (1952)), metrazole spasm (Everett, G. M., Richards, R. K.: J. Pharmacol. Exp. Ther. 81, 402 (1944)), thiosemicarbazide spasm ( Da Venzo, J. P., Greig, M. E., Cormin, M. A.: Amer. J. Physiol. 201, 833 (1961)), strychnine spasm (Kerley, T. L., Richards, A. G., Begley, R. W., Abreu, B. B., Wesver, L. C.: J. Pharmacol. Exp. Ther. 132, 360 (1961)), nicotine spasm (Stone, C. A., Mecklenburg, K. L., Torhans, M. L.: Arch. Int. Pharmacodyn. 117, 419 (1958)), rotarod test (Kinnard, W. C., Carr, C. J.: J. Pharmacol. Expt. Ther. 121, 354 (1957)), physostigmine lethality preventing effect (Nose, T., Kojima, M.: Europ. J. Pharmacol. 10, 83 (1970)), yohimbine potentiation effect (Quinton, R. M.: Brit. J. Pharmacol. 21, 51 (1963)), and analgesic activity (Bianchi, G., Francheschini, J.: Brit. J. Pharm. Chemother. 9, 280 (1954)).
As a reference substance, phenobarbital was used. […].

SMILES | Cytochrome b-5 (nmoles/g. of liver), % of control [1] [%] | Cytochrome P-450 (nmoles/g. of liver), % of control [2] [%] | Aminopyridine demethylase (nmoles/g./min.), % of control [3] [%] | mortality at 336 h [4] [%] | c(P-450)reductase (nmoles/g. of liver/min.), % of control [5] [%] | Microsomal protein (mg./g. of liver), % of control [6] [%] | Relative weight of liver (g./100 g. of body weight), % of control [7] [%] | Narcosis period in % of the control, 1 hour [8] [%] | Narcosis period in % of the control, 24 hours [8] [%] | Aniline hydroxylase (nmoles/g. of liver/min.), % of control [9] [%] | central nervous activities [10] | LD50 ([4]; footnote x of Table 3) [mg/kg]
CCC(O)(c1ccc(F)cc1)c1ccc(OCCN2CCCCC2)cc1 (stereo not drawn) [D, α-Ethyl-α-(4-fluorophenyl)-4-[2-(piperidin-1-yl)-ethoxy]-benzylalcohol] | 116 ± 4.8 | 163 ± 8.7 | 123 ± 7.8 | 0 | 178 ± 16.2 | 111 ± 4.2 | 122 ± 4.9 | 120 ± 4.2 | 53 ± 3.7 | 131 ± 5.9 | – | –
CCC(O)(c1ccc(OCCN2CCCCC2)cc1)c1cccc(C(F)(F)F)c1 (stereo not drawn) [A, α-Ethyl-α-(3-trifluoromethylphenyl)-4-[2-(piperidin-1-yl)-ethoxy]-benzylalcohol] | – | – | – | 0 | – | – | – | 177 ± 5.0 | 49 ± 0.7 | – | – | –
CCC1(c2ccccc2)C(=O)NC(=O)NC1=O [phenobarbital, reference compound] | – | – | – | – | – | – | – | 250 ± 15.8 | 60 ± 7.3 | – | strong anticonvulsive muscle-coordinating and sedative effects | 245
CCC(O)(c1ccc(OCCN(C)C)cc1)c1cccc(C(F)(F)F)c1 (stereo not drawn) [B, α-ethyl-α-(3-trifluoromethylphenyl)-4-[2-(dimethylamino)-ethoxy]-benzylalcohol] | – | – | – | 0 | – | – | – | 180 ± 10.0 | 49 ± 3.3 | – | – | –
CCC(O)(c1ccc(OCCN2CCCC2)cc1)c1ccccc1OC (stereo not drawn) [C, α-Ethyl-α-(2-methoxyphenyl)-4-[2-(pyrrolidin-1-yl)-ethoxy]-benzylalcohol] | – | – | – | 0 | – | – | – | 113 ± 12.0 | 57 ± 7.8 | – | – | –
